# Values of other authors in US11406619B2, “Injectable formulations” (priority 2020, dated 2022).
# Conditions: according to the Human Metabolome Database; cited from earlier work
smiles,measurement,value
"CN(C)CCc1c[nH]c2ccccc12 [Formulation D0, N,N-dimethyltryptamine]",degradation in solution,degrades relatively quickly in solution
